Paper PMC4634797, “New linear antiplasmodial peptides related to angiotensin II” (Malaria Journal, 2015)
Values joined by “and” are separate entries in the source; they are usually repeats but may differ in a detail not shown here. Equal values may be shown once. Ends that are not written are not given here. Peptide text beside a SMILES is read from it.

Legend:
[1] = system: uninfected human erythrocytes; type: cell-based
Procedure: The haemolytic effect of analogs 5 and 6 was determined in uninfected erythrocytes. Cells were maintained in the same culture conditions in the presence of 10^−8 mol L^−1 peptides, for 24 h. Erythrocytes were centrifuged at 900g/8 min and free haemoglobin in the supernatant was assessed by spectrophotometer at 550 nm. Untreated cells were used as negative control to discount non-specific haemolysis. The haemolytic activity was expressed as percentage of the control. This positive control (100 % haemolysis) was prepared by treating the erythrocytes with distilled water.
The effects of the Ang II, peptides 5 and 6 in the erythrocyte human cells to define the haemolysis were seeded in a 96-well plate in the absence (control) or presence of 10^−8 mol L^−1 of the analogues, as already described.
Fig. 5 Haemolytic assay of human red blood cells were treated with distilled water; uninfected erythrocytes were kept in the same conditions used in the invasion assay with a control and each peptides tested (10^−8 mol L^−1), at 37 °C for 24 h. After incubation, the supernatant was collected, clarified at 900 g/8 min and the haemoglobin content was detected in a spectrophotometer at […]. Triple asterisk statistically significant compared with distilled water value p < 0.05.

[2] = system: non-infected human erythrocytes; type: cell-based
Procedure: The MHC of the peptides were assessed through the measurement of haemoglobin released by non-infected human erythrocytes in the presence of increasing concentrations of the compounds in the same culture conditions of the invasion assay. As described by Jin-Jiang, MHC is the highest peptide concentration that causes no detectable release of haemoglobin.

[3] = not given; remark: listed apart in the source
[4] = not given; remark: listed apart in the source
[5] = system: Plasmodium falciparum W2 strain, erythrocytic cycle; conditions: read-out: IC50, suppression of erythrocytic invasion (rings formed) by P. falciparum; seven concentrations 10^−4 to 10^−14 mol L^−1, 24 h; non-linear regression, GraphPad Prism; n = 2
Source text: The erythrocytic cycle of Plasmodiumfalciparum was maintained in vitro by culturing W2 strains in 1640 medium, supplemented with A-type human blood and serum, as described in Saraiva et al. [6].
Sorbitol solution (5 %) was used to synchronize parasite cultures into the ring stage, according to Lambros and Vanderberg [18]. The resistant ring-forms are subsequently maintained in culture as described above. Erythrocytes infected by parasite mature forms at 2–3 % parasitaemia and 5 % haematocrit were kept in the presence or absence of 10^−8 mol L^−1 synthetic peptides, for 24 h. Invasion is assessed by the appearance of new ring forms. The percentage of invasion was determined by optical microscopy (1000× magnification). It represents the total number of cells infected by rings in 100 erythrocytes in at least ten random microscopic fields. The invasion assay was carried out using two different cell suspension and generated equivalent results
The IC50 values were calculated by using GraphPad Prism Software version 5.00 for Windows (GraphPad, San Diego, California, USA). Parameters: Nonlinear Regression; log (inhibitor) vs. response equation was chosen at least square (ordinary) fit method was applied. […]

[6] = not given; remark: listed apart in the source
[7] = not given; remark: listed apart in the source
[8] = system: P. gallinaceum sporozoite; conditions: cited from earlier work; for biological (antiplasmodial) activity on P. gallinaceum sporozoites: Ala-replacement / deletion analogues and short peptides; for antiplasmodial activity against P. gallinaceum sporozoite: lactam bridged Ang II analogues
Source text: Chamlian et al. studied some lactam bridged Ang II analogues, which presented Asp and Lys insertion in order to restrict the peptide. […] They replaced each amino acid by Ala or deleted the residues of the native Ang II molecule. The biological activities of the analogues […]and […]on the P. gallinaceum sporozoites were equipotent to native Ang II [4], 75 and 79 % of activity, respectively.

[9] = system: P. falciparum red blood cells; conditions: cited from earlier work
Source text: Saraiva et al. described studies that aimed to identify the molecular mechanisms induced by Ang II, which are involved in the modulation of P. falciparum erythrocytic cycle. […] Torres et al. studied the influence of restrict peptides in P. falciparum red blood cells.

[10] = system: Plasmodium gallinaceum mature sporozoites; assay: Effect of the peptides on salivary gland-derived Plasmodium gallinaceum sporozoites (membrane permeability, propidium iodide fluorescence); type: cell-based; conditions: 60 μmol L^−1 peptide in PBS, 37 °C, 1 h, fluorescence microscopy, mean, n = 9
Procedure: Nine-thousand P. gallinaceum mature sporozoites were recovered from the salivary glands of Ae. aegypti and incubated in 50 μL of the PBS solution, with 40 μmol L^−1 digitonin (positive control), 60 μmol L^−1 peptides or negative controls, at 37 °C for 1 h. Cell membrane integrity was then monitored using a Carl Zeiss inverted fluorescence microscope (model Observer Axio Vision A.1) coupled to an image capture Zeiss AxioCam HR digital camera (1300 × 1030 pixels resolution and 8-bit quantization) after addition of 1 μL of the propidium iodide aqueous solution (200 μmol L^−1) in 5 μL of total solution volume. Images were obtained using a 40× objective lens and a green filter effect in red. The spectral range was set with the excitation at 538 nm within the visible spectrum in order to produce orange-red fluorescence centered at 619 nm, which was processed using the Axio 4.7 software.
The effect of the peptides on sporozoites was determined in vitro by fluorescence microscopy after one hour of incubation of the parasites with each peptide in the presence of propidium iodide (see Additional file 1). The results are reported as the per cent of fluorescent sporozoites. The analyses were carried out in triplicate using three different mosquito batches and a total of nine experiments were performed (n = 9). The effects of the peptides on P. gallinaceum sporozoites in vitro assay presented 64–94 % activity.
Fig. 2 Effects of peptides on membrane permeability expressed as the per cent of fluorescent mature sporozoites (mean ± standard deviation, n = 9). […] Positive control group (+): digitonin/PBS; negative control group (−): PBS.
Nine-thousand P. gallinaceum mature sporozoites were recovered from the salivary glands of Ae. aegypti and incubated in 50 µL of the PBS solution, with 40 μmol L^–1 digitonin (positive control), 60 μmol L^–1 peptides or negative controls, at 37 °C for one hour. Cell membrane integrity was then monitored using a Carl Zeiss inverted fluorescence microscope (model Observer Axio Vision A.1) coupled to an image capture Zeiss AxioCam HR digital camera (1,300 x 1,030 pixels resolution and 8-bit quantization) after addition of 1 µL of the propidium iodide aqueous solution (200 µmol L^–1) in 5 μL of total solution volume. Images were obtained using a 40X objective lens and a green filter effect in red. The spectral range was set with the excitation at 538 nm within the visible spectrum in order to produce orange-red fluorescence centered at 619 nm, which was processed using the Axio 4.7 software.

CC[C@H](C)[C@H](NC(=O)[C@H](Cc1ccc(O)cc1)NC(=O)[C@@H](NC(=O)[C@H](CCCNC(=N)N)NC(=O)[C@@H](N)CC(=O)O)C(C)C)C(=O)N[C@@H](Cc1cnc[nH]1)C(=O)N1CCC[C@H]1C(=O)N[C@@H](Cc1ccccc1)C(=O)O [Ang II, angiotensin II]
haemolytic activity (% of distilled water control) [1]: did not present hemolytic effects
MHC [2]: 10^−5 M

N[C@@H](Cc1ccc(O)cc1)C(=O)N[C@@H](Cc1c[nH]cn1)C(=O)N1CCC[C@H]1C(=O)N[C@@H](Cc1ccccc1)C(=O)O [Peptide 5, des-Asp^1,Arg^2,Val^3,Ile^5-AII] (H-YHPF-OH)
secondary conformation parallel: 12.1% and 13.4%
MHC [2]: 10^−5 M
secondary conformation antiparallel [3]: 12% and 13.9%
secondary conformation random coil [4]: 40.6% and 44.3% and 40.4%
IC50 [5]: 0.89 nM
secondary conformation β-turn [6]: 25.7%
secondary conformation α-helix [7]: 9.7% (2×) and 9.6%

CC[C@H](C)[C@H](NC(=O)[C@@H](N)C(C)C)C(=O)N1CCC[C@H]1C(=O)N[C@@H](Cc1ccccc1)C(=O)O [Peptide 6, des-Asp^1,Arg^2,Tyr^4,His^6-AII] (H-VIPF-OH)
secondary conformation parallel: 13%
MHC [2]: 10^−6 M
secondary conformation random coil [4]: 40.4%
IC50 [5]: 0.62 nM
secondary conformation β-turn [6]: 21.7%
secondary conformation α-helix [7]: 9.6% and 9.7% (2×)

Arg-Val-Tyr-Ile-His-Pro-Phe [deletion analogue of Ang II, Ferreira et al]
biological (antiplasmodial) activity on P. gallinaceum sporozoites [8]: about 50%

Asp-Arg-Val-Tyr-Ile-His-Pro [deletion analogue of Ang II, Ferreira et al]
biological (antiplasmodial) activity on P. gallinaceum sporozoites [8]: about 50%

CRDCVYIHPF (cysteine pairing not given here) [restrict peptide of Torres et al]
reduction of the parasitaemia by restrict peptides [9]: active in two different parasite species

DRVYAHPF [Ala-replacement Ang II analogue from earlier work]
biological (antiplasmodial) activity on P. gallinaceum sporozoites [8]: 75%

DRVYDIHKPF (also: sidechain bridge or staple (positions not given here)) [VC-26, lactam bridged Ang II analogue of Chamlian et al]
antiplasmodial activity against P. gallinaceum sporozoite [8]: 73%

DRVYHIPF [Peptide 1, [Ile^6,His^5]-AII]
per cent of fluorescent mature sporozoites (Spz Fluorescence, antiplasmodial activity) [10]: 94%

DRVYIAPF [Ala-replacement Ang II analogue from earlier work]
biological (antiplasmodial) activity on P. gallinaceum sporozoites [8]: 79%

DRVYIDHKPF (also: sidechain bridge or staple (positions not given here)) [VC-12, lactam bridged Ang II analogue of Chamlian et al]
antiplasmodial activity against P. gallinaceum sporozoite [8]: 87%

DRVYPF [Peptide 2, des-Ile^5,His^6-AII]
per cent of fluorescent mature sporozoites (Spz Fluorescence, antiplasmodial activity) [10]: 64%

Ile-His-Pro-Phe [short peptide, Ferreira et al]
biological (antiplasmodial) activity on P. gallinaceum sporozoites [8]: about 80%

RYHIPF [Peptide 4, [Ile^4,His^3]-des-Asp^1,Val^3-AII]
per cent of fluorescent mature sporozoites (Spz Fluorescence, antiplasmodial activity) [10]: 77%

Val-Tyr-Ile-His-Pro [short peptide, Ferreira et al]
biological (antiplasmodial) activity on P. gallinaceum sporozoites [8]: about 80%

Val-Tyr-Ile-His-Pro-Phe (VYIHPF; printed: Val-Tyr-Ile-His-Pro-Phe) [short peptide, Ferreira et al]
biological (antiplasmodial) activity on P. gallinaceum sporozoites [8]: about 80%

[2-Nal^3]- des-Asp^1,Arg^2,Tyr^4,His^6-AII [Peptide 9]
per cent of fluorescent mature sporozoites (Spz Fluorescence, antiplasmodial activity) [10]: 70%

[2-Nal^4]- des-Asp^1,Arg^2,Tyr^4,His^6-AII [Peptide 10]
per cent of fluorescent mature sporozoites (Spz Fluorescence, antiplasmodial activity) [10]: 73%
